Experimental data as given in ChEMBL document CHEMBL3779859, “Synergistic activity of a short lipidated antimicrobial peptide (lipoAMP) and colistin or tobramycin against Pseudomonas aeruginosa from cystic fibrosis patients” (Medchemcomm, 2016).
Converted amounts (≈) assume the structure as drawn. The source made the active and inactive calls. The rule behind the calls is not given here. Peptide text beside a SMILES is read from it. * marks the point of attachment. DEAC = CCN(CC)c1ccc2cc(C(=O)*)c(=O)oc2c1; Lauroyl = CCCCCCCCCCCC(=O)*; Decanoyl = CCCCCCCCCC(=O)*; Octanoyl = CCCCCCCC(=O)*; Hexanoyl = CCCCCC(=O)*

Tests used:
[1] = system: Pseudomonas aeruginosa; experiment: Antibacterial activity against Pseudomonas aeruginosa KD491 clinical isolate after 16 to 20 hrs by microdilution assay; format: functional
[2] = system: Pseudomonas aeruginosa; experiment: Antibacterial activity against Pseudomonas aeruginosa VW1633 clinical isolate after 16 to 20 hrs by microdilution assay; format: functional
[3] = system: Pseudomonas aeruginosa; experiment: Antibacterial activity against Pseudomonas aeruginosa LES431 clinical isolate after 16 to 20 hrs by microdilution assay; format: functional
[4] = system: Pseudomonas aeruginosa; experiment: Antibacterial activity against Pseudomonas aeruginosa MIDLANDS clinical isolate after 16 to 20 hrs by microdilution assay; format: functional
[5] = system: Pseudomonas aeruginosa; experiment: Antibacterial activity against Pseudomonas aeruginosa kl 1.1 clinical isolate after 16 to 20 hrs by microdilution assay; format: functional
[6] = system: Pseudomonas aeruginosa; experiment: Antibacterial activity against Pseudomonas aeruginosa VW178 clinical isolate after 16 to 20 hrs by microdilution assay; format: functional
[7] = system: Pseudomonas aeruginosa; experiment: Antibacterial activity against Pseudomonas aeruginosa KD557 clinical isolate after 16 to 20 hrs by microdilution assay; format: functional
[8] = system: Pseudomonas aeruginosa; experiment: Antibacterial activity against Pseudomonas aeruginosa KD491 clinical isolate assessed as growth rate in exponential phase at 0.25 ug/ml measured every 15 mins by microtiter plate reader method; format: functional, organism-based
[9] = system: Pseudomonas aeruginosa; experiment: Antibacterial activity against Pseudomonas aeruginosa VW1538 clinical isolate after 16 to 20 hrs by microdilution assay; format: functional
[10] = system: Pseudomonas aeruginosa; experiment: Antibacterial activity against Pseudomonas aeruginosa VW1485 clinical isolate after 16 to 20 hrs by microdilution assay; format: functional
[11] = system: Pseudomonas aeruginosa; experiment: Antibacterial activity against Pseudomonas aeruginosa VW1471 clinical isolate after 16 to 20 hrs by microdilution assay; format: functional
[12] = system: Pseudomonas aeruginosa; experiment: Antibacterial activity against Pseudomonas aeruginosa LES400 clinical isolate after 16 to 20 hrs by microdilution assay; format: functional
[13] = system: Pseudomonas aeruginosa; experiment: Antibacterial activity against Pseudomonas aeruginosa kl 3.2 clinical isolate after 16 to 20 hrs by microdilution assay; format: functional
[14] = system: Pseudomonas aeruginosa; experiment: Antibacterial activity against Pseudomonas aeruginosa PAO1 clinical isolate assessed as inhibition of biofilm formation at 2 ug/ml after 18 to 22 hrs by crystal violet staining-based polystyrene microtiter plate reader method; format: functional, organism-based
[15] = system: Pseudomonas aeruginosa; experiment: Antibacterial activity against Pseudomonas aeruginosa Clone C clinical isolate assessed as inhibition of biofilm formation at 2 ug/ml after 18 to 22 hrs by crystal violet staining-based polystyrene microtiter plate reader method; format: functional, organism-based
[16] = system: Pseudomonas aeruginosa; experiment: Antibacterial activity against Pseudomonas aeruginosa VW0247 clinical isolate after 16 to 20 hrs by microdilution assay; format: functional
[17] = system: Pseudomonas aeruginosa; experiment: Antibacterial activity against Pseudomonas aeruginosa KD491 clinical isolate assessed as prolongation time of lag phase in bacterial growth curve at 0.25 ug/ml measured every 15 mins by microtiter plate reader method; format: functional, organism-based
[18] = system: Pseudomonas aeruginosa; experiment: Antibacterial activity against Pseudomonas aeruginosa VW313 clinical isolate after 16 to 20 hrs by microdilution assay; format: functional
[19] = system: Pseudomonas aeruginosa; experiment: Antibacterial activity against Pseudomonas aeruginosa LESB58 clinical isolate after 16 to 20 hrs by microdilution assay; format: functional
[20] = system: Pseudomonas aeruginosa; experiment: Antibacterial activity against Pseudomonas aeruginosa Clone C clinical isolate after 16 to 20 hrs by microdilution assay; format: functional
[21] = system: Pseudomonas aeruginosa; experiment: Antibacterial activity against Pseudomonas aeruginosa VW1540 clinical isolate after 16 to 20 hrs by microdilution assay; format: functional
[22] = system: Pseudomonas aeruginosa; experiment: Antibacterial activity against Pseudomonas aeruginosa VW1501 clinical isolate after 16 to 20 hrs by microdilution assay; format: functional
[23] = system: Pseudomonas aeruginosa; experiment: Antibacterial activity against Pseudomonas aeruginosa LESB58 clinical isolate assessed as growth rate in exponential phase at 2 ug/ml measured every 15 mins by microtiter plate reader method; format: functional, organism-based
[24] = system: Pseudomonas aeruginosa; experiment: Antibacterial activity against Pseudomonas aeruginosa LESB58 clinical isolate assessed as prolongation of lag phase in bacterial growth curve at 2 ug/ml measured every 15 mins by microtiter plate reader method; format: functional, organism-based
[25] = system: Pseudomonas aeruginosa; experiment: Antibacterial activity against Pseudomonas aeruginosa D599 clinical isolate after 16 to 20 hrs by microdilution assay; format: functional
[26] = system: Pseudomonas aeruginosa; experiment: Antibacterial activity against Pseudomonas aeruginosa PAO1 clinical isolate after 16 to 20 hrs by microdilution assay; format: functional

CCCCCC(=O)NCCCC[C@H](NC(=O)[C@H](Cc1c[nH]c2ccccc12)NC(=O)[C@H](CCCNC(=N)N)NC(=O)[C@H](Cc1c[nH]c2ccccc12)NC(=O)[C@H](CCCNC(=N)N)NC(=O)[C@H](Cc1c[nH]c2ccccc12)NC(=O)[C@@H](N)CCCNC(=N)N)C(=O)O (H-RWRWRWK(Hexanoyl)-OH)
MIC [1]: 32 µg/mL (≈ 25.2 µM)
MIC [2]: 16 µg/mL (≈ 12.6 µM)
MIC [3]: > 128 µg/mL

COLISTIN
MIC [4]: 4 µg/mL
MIC [5]: 4 µg/mL
MIC [6]: 4 µg/mL
MIC [7]: 8 µg/mL
Activity [8]: inactive
MIC [9]: 2 µg/mL
MIC [10]: > 128 µg/mL
MIC [11]: 4 µg/mL
MIC [12]: 4 µg/mL
MIC [1]: 2 µg/mL
MIC [13]: 8 µg/mL
inhibition [14]: < 20%
inhibition [15]: < 20%
MIC [16]: 2 µg/mL
TIME [17]: 4 h
MIC [18]: 4 µg/mL
MIC [19]: 32 µg/mL
MIC [20]: 4 µg/mL
MIC [21]: 4 µg/mL
MIC [22]: 2 µg/mL
Activity [23]: inactive
MIC [2]: 2 µg/mL
Activity [24]: Active
MIC [3]: 2 µg/mL
MIC [25]: 4 µg/mL
MIC [26]: 4 µg/mL

CC(C)(O/N=C(\C(=O)N[C@@H]1C(=O)N2C(C(=O)[O-])=C(C[n+]3ccccc3)CS[C@H]12)c1csc(N)n1)C(=O)O [CEFTAZIDIME]
MIC [4]: 64 µg/mL (≈ 117 µM)
MIC [5]: 2 µg/mL (≈ 3.66 µM)
MIC [6]: 2 µg/mL (≈ 3.66 µM)
MIC [7]: 2 µg/mL (≈ 3.66 µM)
MIC [9]: 8 µg/mL (≈ 14.6 µM)
MIC [10]: 8 µg/mL (≈ 14.6 µM)
MIC [11]: 128 µg/mL (≈ 234 µM)
MIC [12]: 32 µg/mL (≈ 58.5 µM)
MIC [1]: > 256 µg/mL
MIC [13]: 2 µg/mL (≈ 3.66 µM)
MIC [16]: 16 µg/mL (≈ 29.3 µM)
MIC [18]: > 256 µg/mL
MIC [19]: 256 µg/mL (≈ 468 µM)
MIC [20]: 2 µg/mL (≈ 3.66 µM)
MIC [21]: 16 µg/mL (≈ 29.3 µM)
MIC [22]: 4 µg/mL (≈ 7.32 µM)
MIC [2]: > 256 µg/mL
MIC [3]: 256 µg/mL (≈ 468 µM)
MIC [25]: 1 µg/mL (≈ 1.83 µM)
MIC [26]: 1 µg/mL (≈ 1.83 µM)

CCCCCCCCCCCC(=O)NCCCC[C@H](NC(=O)[C@H](Cc1c[nH]c2ccccc12)NC(=O)[C@H](CCCNC(=N)N)NC(=O)[C@H](Cc1c[nH]c2ccccc12)NC(=O)[C@H](CCCNC(=N)N)NC(=O)[C@H](Cc1c[nH]c2ccccc12)NC(=O)[C@@H](N)CCCNC(=N)N)C(=O)O (H-RWRWRWK(Lauroyl)-OH)
MIC [1]: > 128 µg/mL
MIC [2]: 32 µg/mL (≈ 23.6 µM)
MIC [3]: 64 µg/mL (≈ 47.2 µM)

CCN(CC)c1ccc2cc(C(=O)NCCCC[C@H](NC(=O)[C@H](Cc3c[nH]c4ccccc34)NC(=O)[C@H](CCCNC(=N)N)NC(=O)[C@H](Cc3c[nH]c4ccccc34)NC(=O)[C@H](CCCNC(=N)N)NC(=O)[C@H](Cc3c[nH]c4ccccc34)NC(=O)[C@@H](N)CCCNC(=N)N)C(=O)O)c(=O)oc2c1 (H-RWRWRWK(DEAC)-OH)
MIC [1]: 64 µg/mL (≈ 45.2 µM)
MIC [2]: 64 µg/mL (≈ 45.2 µM)
MIC [3]: > 128 µg/mL

CCCCCCCCCC(=O)N[C@@H](CCCNC(=N)N)C(=O)N[C@@H](Cc1c[nH]c2ccccc12)C(=O)N[C@@H](CCCNC(=N)N)C(=O)N[C@@H](Cc1c[nH]c2ccccc12)C(=O)N[C@@H](CCCNC(=N)N)C(=O)N[C@@H](Cc1c[nH]c2ccccc12)C(=O)N[C@@H](CCCCN)C(=O)O (Decanoyl-RWRWRWK-OH)
MIC [1]: 32 µg/mL (≈ 24.1 µM)
MIC [2]: 64 µg/mL (≈ 48.2 µM)
MIC [3]: 32 µg/mL (≈ 24.1 µM)

CCCCCCCC(=O)NCCCC[C@H](NC(=O)[C@H](Cc1c[nH]c2ccccc12)NC(=O)[C@H](CCCNC(=N)N)NC(=O)[C@H](Cc1c[nH]c2ccccc12)NC(=O)[C@H](CCCNC(=N)N)NC(=O)[C@H](Cc1c[nH]c2ccccc12)NC(=O)[C@@H](N)CCCNC(=N)N)C(=O)O (H-RWRWRWK(Octanoyl)-OH)
MIC [1]: 16 µg/mL (≈ 12.3 µM)
MIC [2]: 16 µg/mL (≈ 12.3 µM)
MIC [3]: 128 µg/mL (≈ 98.5 µM)
